Literature values as cited in US20050080043A1, “Self-preserved antibacterial nasal, inhalable, and topical ophthalmic preparations and medications” (priority 2000, published 2005).
Read-outs that look alike come from different tables or passages of the source.

stability of drug solution (pH 5.0): very stable
stability of drug solution (pH 6.8): relatively unstable
Compound: CC[C@@H]1C(=O)OC[C@@H]1Cc1cncn1C [pilocarpine]
